# Data: US20230055441A1 (NONO INC., priority 2020, published 2023)
# “Also recorded” adds a separate entry of the source. Square brackets hold non-standard residues; d marks the D form. Ends that are not written are not given here. Peptide text beside a SMILES is read from it.
# Key:
# [1] = target: T1, PSD95PDZ2 (Homo sapiens, UniProt P78352); assay: Competitive ELISA with biotinylated-NA-1 on coated PSD95PDZ2; type: binding
# Procedure: Binding was evaluated with a competitive ELISA assay. A plate was coated with 1 ug/ml PSD95PDZ2 in 50 mM bicarbonate buffer overnight at 4C. The plate was blocked in 2% BSA in PBST (0.05%) for 2 h at room temperature. […] The wells were washed again, and then incubated with TMB solution for 10 min. The reaction was stopped with 100 ul H2SO4. Absorbance was determined at 450 nm with the synergy H1 reader.
# Target sequence in this assay (P78352 160-246 limits assumed): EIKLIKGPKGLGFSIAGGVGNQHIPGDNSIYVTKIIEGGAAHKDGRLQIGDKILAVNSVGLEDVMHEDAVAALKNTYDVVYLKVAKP
# [2] = Pharmacokinetic analysis in rats by route (subcutaneous, pulmonary instillation, intramuscular, intravenous); conditions: rat; for Cmax / plasma concentration, pulmonary instillation / plasma exposure, pulmonary instillation / AUC / plasma exposure, subcutaneous / Cmax, subcutaneous: 25 mg/kg (Table 4); for plasma exposure, pulmonary instillation: versus intrapulmonary NA-1; for AUC / plasma exposure, subcutaneous / Cmax, subcutaneous: NA-1 versus IV NA-1, others versus subcutaneous NA-1
# Procedure: Rats were anaesthetized in the supine position (Isoflurane 1.5-%) and allowed to breath spontaneously in 0.5 L/min 02. The left femoral artery was cannulated for blood sampling.
# Test agents were prepared at the stablish concentration in a total volume of vehicle. Pulmonary instillation was performed by intubation with a 14G catheter connected to a 1 cc syringe and the test agent will be delivered through the catheter. Subcutaneous (SQ or SC) injection was injected into the area of the left flank, no more than 2 ml of total volume per site.
# Each dose was evaluated in 3 rats for each administration strategy. […] For the first experiment, evaluating two different administration routes (SQ and PI), blood samples were collected at 8 different timepoints: Pre and at 7 additional times (1, 2.5, 5, 10, 15, 30, 60 min) post dose (250 ul/sample). For the 24-hour PK curve experiment, blood samples were collected at 11 timepoints: Pre, 2.5, 5, 10, 15, 30, 60 min, 3 hr, 6 hr, 12 hr and 24 hr.
# HPLC quantification: Plasma was separated from blood and stored at −80° C. until used. Each sample was precipitated by adding 1M HCl (10 ul/100 ul sample) at >80° C., centrifuged (12,000 rpm×15 min) and the precipitate collected. A 5 cm C—18 RP-HPLC column was equilibrated with 10% acetonitrile with 0.1% TFA at 40° C., the sample was injected and run in an Agilent 1260 Infinity Quaternary LC System. (30 min at 1.5 mL/min; gradient from 10% to 35% acetonitrile in 0.1% TFA; Absorbance detected at 220 nm). Standard curves for HPLC were generated from plasma samples spiked with known quantities of test agent.
# [3] = Pharmacokinetics after subcutaneous injection in non-human primates; type: in vivo, cynomolgus macaques; conditions: for plasma concentrations: cynomolgus macaques
# Text: All values are presented as mean±SD; Statistical significance when compared to nerinetide alone is indicated as * (one-way ANOVA with post-hoc turkey's correction, *P<0.01). (Cmax: maximum plasma concentrations based on the extrapolated time-zero value; t1/2: half-life at terminal phase; tmax: time to reach Cmax; AUC0-t: area under the concentration-time curve from 0 to the last measured value; AUC0-inf: extrapolated area under the concentration-time curve from 0 to infinity; Cl: total clearance). Data is presented as mean±SD of three-four animals per group. The (−) represent data not reported due to an extrapolation of the AUC0-inf greater than 20% and R^2 lower than 0.9.
# [4] = Plasma concentrations 15 minutes after subcutaneous dose in rats of the 3-pial vessel occlusion study; type: in vivo; conditions: rat
# Procedure: Unlike transient models of stroke in rats where much lower doses are required for neuroprotection, neuroprotection in 3 pial vessel occlusion models of stroke seems to require plasma concentrations of nerinetide at or above 2 ug/mL (or molar equivalent). […] Although the plasma levels continue to increase through about 3 hours then decrease, it is important to achieve rapid accumulation in the blood and brain for emergency indications like stroke. […] For pharmacokinetic sample analysis, calibration standard samples at concentrations of 0, 2.5, 5, 10, 15, 20 and 40 ug/mL of nerinetide were prepared by spiking 1 μL of the appropriate stock to 100 μL of plasma. […] Data is presented as mean±SD.
# [5] = test system: histamine; assay: Histamine release in rat plasma (histamine ELISA)
# Procedure: Blood samples were collected at 11 timepoints: Pre, 2.5, 5, 10, 15, 30, 60 min, 3 hr, 6 hr, 12 hr and 24 hr. Histamine levels were quantified by using commercially available histamine ELISA assay kit (Histamine ELISA-H1531-K01, Eagle Bioscience). The plates were coated with the plasma samples (50 ul/well) incubated for 60 minutes at room temperature on an orbital shaker with medium frequency. Then 100 ul of enzyme conjugate was added to the wells and incubated for 20 minutes at room temperature. Samples were washed again, and then incubated for 25 minutes at room temperature with TMB solution. The reaction was stopped with 100 ul H2SO4. Absorbance was determined on an ELISA plate reader at 450 nm.
# Blood samples were taken at pre-injection and at 0, 1, 2.5, 5, 10, 15, 30- and 60-minutes post dose and used for histamine levels quantification using commercially available kit.
# [6] = target: T1, PSD95PDZ2; assay: competitive ELISA, PSD95PDZ2 coated, competitor biotinylated NA-1
# Target sequence in this assay (P78352 160-246 limits assumed): as above
# [7] = target: T1, PSD95PDZ2; assay: direct ELISA; biotinylated peptide
# Target sequence in this assay (P78352 160-246): as the sequence (P78352 160-246 limits assumed) above
# [8] = target: T1, PSD95PDZ2; assay: direct ELISA; biotinylated peptide; unit printed "um"
# Target sequence in this assay (P78352 160-246): as the sequence (P78352 160-246 limits assumed) above
# [9] = test system: plasmin; assay: digested with plasmin
# [10] = test system: tPA; assay: tPA in PBS buffer (no plasma)
# [11] = test system: TNK; assay: TNK in phosphate buffered saline alone
# [12] = test system: TNK-tissue plasminogen activator; assay: human plasma with TNK
# [13] = test system: TNK-tissue plasminogen activator; assay: rat plasma with TNK
# [14] = subcutaneous 25 mg/kg versus nerinetide IV infusion
# [15] = listed as D-Tat-L-IESDV, 25 mg/kg
# [16] = subcutaneous 25, 8.3, 2.8 mg/kg
compound,measurement,setting,value
"CC[C@@H](C)[C@@H](NC(=O)[C@@H](CO)NC(=O)[C@@H](CO)NC(=O)[C@@H](CC(C)C)NC(=O)[C@@H](CCCCN)NC(=O)[C@@H](CCCNC(=N)N)NC(=O)[C@@H](CCCNC(=N)N)NC(=O)[C@@H](CCCNC(=N)N)NC(=O)[C@@H](CCC(N)=O)NC(=O)[C@@H](CCCNC(=N)N)NC(=O)[C@@H](CCCNC(=N)N)NC(=O)[C@@H](CCCCN)NC(=O)[C@@H](CCCCN)NC(=O)[C@@H](CCCNC(=N)N)NC(=O)CNC(=O)[C@H](N)Cc1ccc(O)cc1)C(=O)N[C@H](CCC(=O)O)C(=O)N[C@H](CO)C(=O)N[C@H](CC(=O)O)C(=O)N[C@@H](C(=O)O)C(C)C [D-NA-1, ygrkkrrqrrrklssiesdv] (H-[dY]G[dR][dK][dK][dR][dR][dQ][dR][dR][dR][dK][dL][dS][dS][dI][dE][dS][dD][dV]-OH)","EC50 compared among NA-1, D-Tat-L-2B9C and D-NA-1",[1]; FIG. 12,about ten-fold lower
same,"Cmax / plasma concentration, pulmonary instillation",[2],higher plasma concentration
same,"plasma exposure, pulmonary instillation",[2],greater plasma exposure
same,"AUC / plasma exposure, subcutaneous",[2],also increased Cmax and AUC relative to subcutaneous NA-1 but not to the same extent
same,"Cmax, subcutaneous",[2],also increased Cmax and AUC relative to subcutaneous NA-1 but not to the same extent
"CC[C@H](C)[C@H](NC(=O)[C@@H](CO)NC(=O)[C@@H](CO)NC(=O)[C@@H](CC(C)C)NC(=O)[C@@H](CCCCN)NC(=O)[C@@H](CCCNC(=N)N)NC(=O)[C@@H](CCCNC(=N)N)NC(=O)[C@@H](CCCNC(=N)N)NC(=O)[C@@H](CCC(N)=O)NC(=O)[C@@H](CCCNC(=N)N)NC(=O)[C@@H](CCCNC(=N)N)NC(=O)[C@@H](CCCCN)NC(=O)[C@@H](CCCCN)NC(=O)[C@@H](CCCNC(=N)N)NC(=O)CNC(=O)[C@H](N)Cc1ccc(O)cc1)C(=O)N[C@@H](CCC(=O)O)C(=O)N[C@@H](CO)C(=O)N[C@@H](CC(=O)O)C(=O)N[C@H](C(=O)O)C(C)C [NA-3, ygrkkrrqrrrklsslESDV] (H-[dY]G[dR][dK][dK][dR][dR][dQ][dR][dR][dR][dK][dL][dS][dS]IESDV-OH)",plasma concentrations,[3]; 7.6 mg/Kg subcutaneous,able to achieve plasma concentrations higher than those demonstrated to be effective in humans
same,plasma concentrations,[3]; 25 mg/kg subcutaneous,able to achieve plasma concentrations higher than those demonstrated to be effective in humans
same,AUC,[3]; [14],greater Cmax and AUC than nerinetide IV infusion
same,Cmax,[3]; [14],greater Cmax and AUC than nerinetide IV infusion
same,IC50,[1],< 5 µM
same,"plasma exposure, pulmonary instillation",[2],greater plasma exposure
same,"Cmax / plasma concentration, pulmonary instillation",[2]; 25 mg/kg,higher plasma concentration
same,"Cmax / plasma concentration, pulmonary instillation",[2]; [15],higher CMax than for NA-1 or D-Tat-L-2B9C
same,"dose dependence of AUC, subcutaneous",[2]; [16],dose-dependent increasing linearly with dose
same,"dose dependence of Cmax, subcutaneous",[2]; [16],dose-dependent increasing linearly with dose
same,"AUC / plasma exposure, subcutaneous",[2]; 25 mg/kg,greater plasma exposure relative to SQ NA-1
same,"Cmax, subcutaneous",[2]; 25 mg/kg,higher plasma concentration
same,"AUC / plasma exposure, subcutaneous",[2]; [15],increased Cmax and AUC compared with subcutaneous NA-1
same,"Cmax, subcutaneous",[2]; [15],increased Cmax and AUC compared with subcutaneous NA-1
same,dose proportionality between treatment dose and Cmax,"[4]; single subcutaneous administration 25, 7.6, 2.5 mg/kg",dose proportionality
same,stability in plasma,"[4]; subcutaneous, compared to nerinetide",higher stability in plasma
same,plasma concentration at 15 min post-dose,"[4]; subcutaneous, compared to nerinetide at the same dose",higher concentration at 15 min post-dose
same,histamine release,[5]; 25 mg/kg SQ,resulted in histamine release but still much less than 7.6 mg/kg IV
same,histamine release,[5]; subcutaneous 2.8 mg/kg,Lack of significant histamine release
same,histamine release,"[5]; subcutaneous 2.8 mg/kg, listed as D-Tat-L-IESDV",did not result in significant histamine release
same,histamine release,[5]; subcutaneous 8.3 mg/kg,Lack of significant histamine release
same,histamine release,"[5]; subcutaneous 8.3 mg/kg, listed as D-Tat-L-IESDV",did not result in significant histamine release
D-NA-1 (peptide),fold difference of EC50 against NA-1 and D-Tat-L-2B9C,[6],10 fold
D-NA-1 NA1 (Bio-D-NA1),EC50,[7],1.38 µM
D-Tat-L-NA-1 (Bio-D-Tat-L-NA1),EC50,[8],0.139 µM
YGRKKRRQRRRKLSSIESDV,fragment found,[9],RRQRRRKLSSIESDV; also recorded: RQRRRKLSSIESDV; also recorded: QRRRKLSSIESDV; also recorded: RRKLSSIESDV; also recorded: RKLSSIESDV; also recorded: KLSSIESDV; also recorded: LSSIESDV
same,not cleaved,[10],no degradation
same,not cleaved,[11],not directly cleaved
ygrkkrrqrrrKLSSIESDV ([dY]G[dR][dK][dK][dR][dR][dQ][dR][dR][dR]KLSSIESDV),not cleaved,[10],no degradation
same,not cleaved,[12],stable
same,not cleaved,[13],stable
